Test results from patent publication US8778837B2, “Use of active substance combinations for controlling animal pests” (priority 2007, dated 2014).
Where “and” joins values, the source holds several entries; their conditions need not be identical. Equal values may be shown once.

How the values were obtained:
Format in all cases: in vivo
Myzus persicae = Myzus persicae test (cabbage leaf dip)
Text: (§1) The activity to be expected for a given combination of two active substances can be calculated as follows (cf. Colby, S. R., “Calculating Synergistic and Antagonistic Responses of Herbicide Combinations”, Weeds 15, pages 20-22, 1967):
(§2) • X means the degree of destruction expressed in % of the untreated control when using active substance A at an application rate of m ppm or m g/ha, • Y means the degree of destruction expressed in % of the untreated control when using active substance B at an application rate of n ppm or n g/ha, and • E means the degree of destruction expressed in % of the untreated control when employing active substances A and B at application rates of m and n ppm or m and n g/ha, then
(§3) If the actual insecticidal degree of destruction is greater than calculated, the combination is superadditive regarding its destruction, i.e. a synergistic effect is present. In this case, the degree of destruction which is actually observed must exceed the value calculated on the basis of the above formula for the expected degree of destruction (E).
(§4) Solvent: 7 parts by weight of dimethylformamide
(§5) Emulsifier: 2 parts by weight of alkylaryl polyglycol ether
(§6) To prepare a suitable preparation of active substance, 1 part by weight of active substance is mixed with the stated amounts of solvent and emulsifier, and the concentrate is diluted to the desired concentration with emulsifier-containing water.
Cabbage leaves (Brassica oleracea) which are severely infested with the green peach aphid (Myzus persicae) are treated by being dipped into the active substance preparation of the desired concentration.
After the desired period of time, the destruction is determined in %. Here, 100% means that all the aphids have been destroyed; 0% means that no aphids have been destroyed. The destruction rates which have been determined are entered in the Colby formula (see sheet 1).

[1] = test system: Phaedon cochleariae larvae; experiment: Phaedon cochleariae larvae test (cabbage leaf dip)
Text: as §1, §2, §3
Phaedon Cochleariae Larvae Test
as §4, §5, §6
Cabbage leaves (Brassica oleracea) are treated by being dipped into the active substance preparation of the desired concentration and are populated with mustard beetle larvae (Phaedon cochleariae) while the leaves are still moist.
After the desired period of time, the destruction is determined in %. Here, 100% means that all the beetle larvae have been destroyed; 0% means that no beetle larvae have been destroyed. The destruction rates which have been determined are entered in the Colby formula (see sheet 1).

[2] = test system: Plutella xylostella, sensitive strain; experiment: Plutella xylostella test (sensitive strain, cabbage leaf dip)
Text: as §1, §2, §3
Plutella-Xylostella Test (Sensitive Strain)
as §4, §5, §6
Cabbage leaves (Brassica oleracea) are treated by being dipped into the active substance preparation of the desired concentration and are populated with diamondback moth caterpillars (Plutella xylostella, sensitive strain) while the leaves are still moist.
(§7) After the desired period of time, the destruction is determined in %. Here, 100% means that all the caterpillars have been destroyed; 0% means that no caterpillars have been destroyed. The destruction rates which have been determined are entered in the Colby formula (see sheet 1).

Spodoptera frugiperda = Spodoptera frugiperda test (cabbage leaf dip)
Text: as §1, §2, §3
Spodoptera frugiperda Test
as §4, §5, §6
Cabbage leaves (Brassica oleracea) are treated by being dipped into the active substance preparation of the desired concentration and are populated with armyworm caterpillars (Spodoptera frugiperda) while the leaves are still moist.
as §7

## CN/C(=N\[N+](=O)[O-])NCc1cnc(Cl)s1 [Clothianidin, clothianidin]
Myzus persicae; 0.8 ppm
  Destruction in % after 6 d: 55%
[1]; 4 ppm
  Destruction in % after 6 d: 65%
[2]; 20 ppm
  Destruction in % after 6 d: 25%
Spodoptera frugiperda; 4 ppm
  Destruction in % after 3 d: 95%

## N#Cc1nn(-c2c(Cl)cc(C(F)(F)F)cc2Cl)c(N)c1[S+]([O-])C(F)(F)F (stereo not shown) [Fipronil, fipronil]
Myzus persicae; 100 ppm
  Destruction in % after 6 d: 65%
Spodoptera frugiperda; 0.8 ppm
  Destruction in % after 6 d: 5%

## O=[N+]([O-])NC1=NCCN1Cc1ccc(Cl)nc1 [Imidacloprid]
Myzus persicae; 0.8 ppm
  Destruction in % after 6 d: 75%
[1]; 20 ppm
  Destruction in % after 6 d: 75%

## N#Cc1ccccc1NC(=O)c1snc(Cl)c1Cl [Isotianil, 3,4-dichloro-2′-cyano-1,2-thiazole-5-carboxanilide]
Myzus persicae; 500 ppm
  Destruction in % after 1 d: 0%
  Destruction in % after 6 d: 10% and 0%
[1]; 500 ppm
  Destruction in % after 6 d: 0%
[2]; 500 ppm
  Destruction in % after 6 d: 0%
Spodoptera frugiperda; 500 ppm
  Destruction in % after 3 d: 10%

## N#C/N=C1\SCCN1Cc1ccc(Cl)nc1 [Thiacloprid]
Myzus persicae; 0.8 ppm
  Destruction in % after 6 d: 45%
[1]; 4 ppm
  Destruction in % after 6 d: 0%
[2]; 20 ppm
  Destruction in % after 6 d: 45%

## CN1COCN(Cc2cnc(Cl)s2)/C1=N\[N+](=O)[O-] [Thiamethoxam]
Myzus persicae; 0.8 ppm
  Destruction in % after 1 d: 75%
[1]; 20 ppm
  Destruction in % after 6 d: 80%
Spodoptera frugiperda; 20 ppm
  Destruction in % after 6 d: 70%
